T1: ERRα1 (Homo sapiens, UniProt P11474)
T1 construct: expressed in transfected cells; host or cells: COS cells (whole-cell extract)
T1 sequence (P11474 1-423): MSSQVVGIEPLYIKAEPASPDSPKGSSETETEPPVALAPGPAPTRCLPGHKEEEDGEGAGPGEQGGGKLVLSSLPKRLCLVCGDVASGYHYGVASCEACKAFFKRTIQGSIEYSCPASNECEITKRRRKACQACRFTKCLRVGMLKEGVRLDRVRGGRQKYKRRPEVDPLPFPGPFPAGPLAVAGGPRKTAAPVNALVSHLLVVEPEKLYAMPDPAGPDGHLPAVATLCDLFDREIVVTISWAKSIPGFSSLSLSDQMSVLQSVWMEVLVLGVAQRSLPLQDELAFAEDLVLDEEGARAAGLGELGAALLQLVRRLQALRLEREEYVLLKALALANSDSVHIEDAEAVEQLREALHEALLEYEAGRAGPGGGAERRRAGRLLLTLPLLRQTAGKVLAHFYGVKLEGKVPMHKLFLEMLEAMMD

B1: ERRα176-423: amino-terminal-deleted ERRα1 variant (residues 76-423) lacking the A/B domain (protein)
chain: MKRLCLVCGDVASGYHYGVASCEACKAFFKRTIQGSIEYSCPASNECEITKRRRKACQACRFTKCLRVGMLKEGVRLDRVRGGRQKYKRRPEVDPLPFPGPFPAGPLAVAGGPRKTAAPVNALVSHLLVVEPEKLYAMPDPAGPDGHLPAVATLCDLFDREIVVTISWAKSIPGFSSLSLSDQMSVLQSVWMEVLVLGVAQRSLPLQDELAFAEDLVLDEEGARAAGLGELGAALLQLVRRLQALRLEREEYVLLKALALANSDSVHIEDAEAVEQLREALHEALLEYEAGRAGPGGGAERRRAGRLLLTLPLLRQTAGKVLAHFYGVKLEGKVPMHKLFLEMLEAMMD
B2: ERRα11-173: carboxyl-terminal-deleted ERRα1 variant (residues 1-173) retaining A/B and DNA binding domains, lacking E/F domains (protein)
chain: MSSQVVGIEPLYIKAEPASPDSPKGSSETETEPPVALAPGPAPTRCLPGHKEEEDGEGAGPGEQGGGKLVLSSLPKRLCLVCGDVASGYHYGVASCEACKAFFKRTIQGSIEYSCPASNECEITKRRRKACQACRFTKCLRVGMLKEGVRLDRVRGGRQKYKRRPEVDPLPFP

The molecules below were run against T1, ERRα1 (assay: Quantitative competition EMSA of unlabeled oligodeoxynucleotides against 32P-labeled reference consensus ERRE). Settings: relative to reference consensus ERRE; reciprocal of fold molar excess of competitor reducing shifted probe by 50%; COS whole cell extracts.
Assay type: binding
Experimental: Quantitative gel-mobility-shift assays: DNA binding was assayed in 20 μl of a buffer containing 10 mM HEPES (pH 7.5), 2.5 mM MgCl2, 50 μM EDTA, 1 mM dithiothreitol, 6% glycerol and 100 ng/μl of poly(dI-dC)·poly(dI-dC). Competition binding assays included unlabeled competitor oligonucleotide as well. […] Supershift assays contained 1 μl of a 1:10 dilution of whole antiserum. All components were mixed prior to the addition of protein. The final mixtures were incubated on ice for 15 minutes, followed by 25° C. for 15 minutes prior to separation by electrophoresis at 4° C. for 2 hours through a non-denaturing 4% polyacrylamide gel at 160 volts. Quantitation was performed with a PhosphorImager (Molecular Dynamics). The relative affinities of different sequences for binding by the protein were determined from the moles of unlabeled competitor oligonucleotide needed to reduce the fraction of probe shifted to 50%.
Knowing which genes are transcriptionally modulated by ERR may help to clarify ERR's potential role in breast cancer. To identify potential ERR-responsive genes, we examined the transcriptional regulatory regions of genes known to be involved in breast cancer for sequences capable of being bound by ERR. […] This sequence is a half-site of the consensus palindromic estrogen response element (ERE, 5′-AGGTCAnnnTGACCT (SEQ ID NO:32)) with a 3-base pair extension at the 5′ end. Searching sequence databases (the EPD Eukaryotic Promoter Database available on line from the Swiss Institute of Bioinformatics (17), and Genbank available on line from the National Center for Biotechnology Information, National Library of Medicine, National Institute of Health) facilitated the location of this consensus and similar non-consensus ERREs in human gene promoters, which were selected and tested experimentally for whether they contained authentic ERR-binding sites. Using quantitative competitive EMSAs performed similarly as described in FIG. 5 of Example 1, we identified many authentic ERR-binding sites that exist in the promoters of important genes implicated in breast cancer. These sequences and ERR's affinity for binding these sites relative to a reference consensus ERRE are shown in Table 3 (Location, distance of the ERRE sequence from the gene's transcriptional start site; Ref, reference of the gene's prognostic status or relevance to human breast cancer).
“GCGAGGAAAGCGTGAAGGTGATTTCAGTTAATT (chemistry not given here) [cyclin D1]” was tested, and the “Relative binding affinity (RBA) of ERRα1 for DNA sequence” value (“Relative binding affinity (RBA)” for short) was 0.07.
With “TCCCTTCCCCCTGCAAGGTCACGGTGGCCACCC (chemistry not given here) [pS2 site 1]” the “Relative binding affinity (RBA)” value was 0.49.
For “AAAGGAACTTTCCCAAGGTCACAGAGCTGAGCT (chemistry not given here) [ErbB2]”, the “Relative binding affinity (RBA)” value was 1.01.
With “GCTCCGGCTCGCTGAAGGTCACAGCCGAGGCGA (chemistry not given here) [IGF1R]” the “Relative binding affinity (RBA)” value was 0.36.
For “GGTGCTCCCACTTAGAGGTCACGCGCGGCGTCG (chemistry not given here) [ERβ]”, the “Relative binding affinity (RBA)” value was 0.54.
“TGGCATATTGGGTGAAGGTCAAGGGAGTGGCTT (chemistry not given here) [Cathepsin D]” was tested, and the “Relative binding affinity (RBA)” value was 0.49.
In the case of “CCTCAGAGTGGCTCAGGGTCAGAGAAGGTAGAG (chemistry not given here) [Pr1 site 3]”, the “Relative binding affinity (RBA)” value is reported as 0.07.
“TCCTAAGGACTGTCAAGGTCATCAAATACAAGG (chemistry not given here) [PgR site 3]” was tested, and the “Relative binding affinity (RBA)” value was 1.45.
In the case of “CAAATAATGGGCTGAAGGTGAACTATCTTTACT (chemistry not given here) [EGF]”, the “Relative binding affinity (RBA)” value is reported as 0.14.
“GGTGGACGCTGCTGAAGGTGAGCGAGACCCCGG (chemistry not given here) [IGF2 site 3]” was tested, and the “Relative binding affinity (RBA)” value was 0.06.
“TGTCCATTTTCTTCTAGGTCAACCCCAATGGTA (chemistry not given here) [Pr1 site 1]” was tested, and the “Relative binding affinity (RBA)” value was 0.06.
With “AGAACATCCCTTTTAAGGTCAGAACAAAGGTAT (chemistry not given here) [BRCA2]” the “Relative binding affinity (RBA)” value was 0.08.
With “CTGTCGGCAGGAACAAGGTCACCCCTTGGCGTT (chemistry not given here) [IGF2 site 2]” the “Relative binding affinity (RBA)” value was 0.25.
In the case of “CTCCCATCTCACTTAAGGTCAAAGCCAGGGTCC (chemistry not given here) [elk1]”, the “Relative binding affinity (RBA)” value is reported as 0.22.
“AAAATTGTTTTGTCTAGGTCATTTGCATTTTCA (chemistry not given here) [PgR site 1]” was tested, and the “Relative binding affinity (RBA)” value was 0.14.
With “GTAATTGCTGTACGAAGGTCAGAATCGCTACCT (chemistry not given here) [BRCA1]” the “Relative binding affinity (RBA)” value was 0.17.
With “TCCTTGCTAAACCCAAGGTCATAAATCTTTTCT (chemistry not given here) [PgR site 2]” the “Relative binding affinity (RBA)” value was 0.91.
With “TCGAGAGCAGTGGCGATTTGTCAAGGTCACACAGTGAG (DNA, backbone not given here) [Reference ERRE, reference compound]” the “Relative binding affinity (RBA)” value was 1.00.
With “ATGTTTGGTATGAAAAGGTCACATTTTATATTC (chemistry not given here) [ERα]” the “Relative binding affinity (RBA)” value was 0.11.
With “GGGAGTTCAGGGTAAAGGTCACGGGGCCGGGGC (chemistry not given here) [hMDM2]” the “Relative binding affinity (RBA)” value was 0.35.
For “CAAATTTGAAACTAAAGGTCACAGGCTGCTTTA (chemistry not given here) [Pr1 site 2]”, the “Relative binding affinity (RBA)” value was 0.33.
With “GTAGGACCTGGATTAAGGTCAGGTTGGAGGAGA (chemistry not given here) [pS2 site 2]” the “Relative binding affinity (RBA)” value was 0.12.
With “CCTGAGACTCTACCAAGGTCAGAAATGCTGCAA (chemistry not given here) [aromatase]” the “Relative binding affinity (RBA)” value was 0.17.

These molecules were tested on ERE-dependent transcription in MCF-7 cells (assay: p3xERE-TK-luc luciferase reporter, transient transfection). Settings: 0.12 or 0.25 μg expression plasmid, whole FBS, 48 h.
Assay type: cell-based, human
Experimental: Transient Transfections and Luciferase Assays: To assess the role ERRα plays in regulating transcription of an ERE-containing promoter, MCF-7 or HeLa cells grown in 12-well tissue culture plates were co-transfected in parallel with 0.5 μg of pTK-luc versus p3xERE-TK-luc along with the indicated amounts of the empty cloning vector pcDNA3.1, the ERRα1 expression plasmid pcDNA3.1-hERRα1, or mutant variants thereof. Transfections were performed with the aid of the TransIT LT1 transfection reagent (PanVera, Madison, Wis.) as previously described (35). To examine the effects of ER ligands, cells were maintained in stripped medium for 48 h before transfection and the addition of 17β-estradiol (E2) (Sigma) or the pure anti-estrogen ICI-182,780 (Astra Zeneca, London, UK) dissolved in ethanol and diluted in medium to obtain the indicated concentrations. Cells were harvested 48 h post-transfection, and lysates were assayed for luciferase activity normalized to protein concentration as previously described (36).
ERRα Represses Transcription in MCF-7 Cells: Because ERRα can interfere with the binding of ERα to this ERE, might it affect estrogen-responsive transcription? To answer this question, we co-transfected ERα-positive mammary MCF-7 cells in parallel with p3xERE-TK-luc, a reporter plasmid containing three tandem copies of this ERE (FIG. 14A) or the ERE-negative control plasmid, pTK-luc, together with 0.12 or 0.25 μg of the ERRα1 expression plasmid, pcDNA3.1-hERRα1, or the empty parental expression plasmid, pcDNA3.1. After incubation for 48 h in medium containing whole FBS, the cells were harvested and assayed for luciferase activity. The presence of the EREs conferred an about 150-fold increase in transcriptional activity above the level observed in the cells transfected with the ERE-negative reporter plasmid (FIG. 14B). […] Thus, ERRα inhibits the estrogen-responsive activation of transcription from this ERE-containing promoter in this ER-positive MCF-7 cell line.
ERRα Modulates Estrogen-responsiveness in MCF-7 Cells: To directly examine the effect of ERRα on the response to estrogen, MCF-7 cells were cultured in medium containing estrogen-free charcoal-stripped FBS and cotransfected as described above but in the absence or presence of E2. […] Once again, overexpression of ERRα repressed ERE-dependent transcription approximately 3-fold while having little if any effect on transcription of the control reporter (FIG. 15A).
B1 was tested, and the “Repression of ERE-dependent transcription by overexpression” value was 2-3 fold.
With B2 the “Repression of ERE-dependent transcription by overexpression” value was “failed to repress”.

Same assay, conditions: 1×10^−8 M E2, charcoal-stripped FBS
In the case of `C[C@]12CC[C@@H]3c4ccc(O)cc4CC[C@H]3[C@@H]1CC[C@@H]2O` [E2, 17β-estradiol, reference compound], the “Additional stimulation of ERE-dependent transcription over level with 10^−10 M E2” value is reported as 3 fold.

Same assay, conditions: 1×10^−8 M E2, charcoal-stripped FBS, 48 h
In the case of `C[C@]12CC[C@@H]3c4ccc(O)cc4CC[C@H]3[C@@H]1CC[C@@H]2O` [E2, 17β-estradiol, reference compound], the “ERE-dependent transcription above activity without exogenous E2” value is reported as “approximately 30 fold”.

Same assay, conditions: 1×10^−10 M E2, charcoal-stripped FBS, 48 h
`C[C@]12CC[C@@H]3c4ccc(O)cc4CC[C@H]3[C@@H]1CC[C@@H]2O` [E2, 17β-estradiol, reference compound] was tested, and the “Induction of transcriptional activity of ERE-containing reporter above level without exogenous E2” value was “approximately 10 fold”.
